This assay addresses benzodiazepine site of the GABAA receptor. The experiment in a line: Ligand binding assay (3H-Ro15-1788 displacement, purified rat cortical membranes). Conditions: previously determined; used in the Cheng-Prusoff equation; read-out: binding dissociation constant (Kd) of the radioligand.

These results are taken from US20080132510A1, “Imidazolylmethyl and Pyrazolylmethyl Heteroaryl Derivatives” (priority 2005, published 2008).

By Kd is commonly meant the concentration at which binding is half-saturated.

As to `CCOC(=O)c1ncn2c1CN(C)C(=O)c1cc(F)ccc1-2` [^3H—R15-1788], the Kd was 1 nM.
